Reference: US11261179B2, “Small molecules” (University of Dundee, priority 2017, dated 2022)
Entries after “also recorded” stand apart in the source; their conditions may differ.

What was measured:
[1] = target: T1, VCB (biotinylated VCB and His-VCB) (Homo sapiens, UniProt P40337); assay: AlphaLISA proximity assay of ternary complex formation; format: binding; settings: VCB 20 nM each, 0.5 to 200 nM Homo-PROTAC
T1 construct: His tag (printed 'Hiss-VCB'); biotin (chemical labelling with NHS-PEG4-biotin); on the other VCB population
T1 sequence (P40337 54-213 limits assumed): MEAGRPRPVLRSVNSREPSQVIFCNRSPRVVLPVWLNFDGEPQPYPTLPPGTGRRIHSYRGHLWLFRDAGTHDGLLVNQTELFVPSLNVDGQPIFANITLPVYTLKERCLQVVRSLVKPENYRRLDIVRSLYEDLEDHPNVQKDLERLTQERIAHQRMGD
T1 sequence (Q15370 1-104 partner limits assumed): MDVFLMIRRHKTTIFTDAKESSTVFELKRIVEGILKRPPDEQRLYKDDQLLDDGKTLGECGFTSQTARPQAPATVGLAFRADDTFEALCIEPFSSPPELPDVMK
T1 sequence (Q15369 17-112 partner limits assumed): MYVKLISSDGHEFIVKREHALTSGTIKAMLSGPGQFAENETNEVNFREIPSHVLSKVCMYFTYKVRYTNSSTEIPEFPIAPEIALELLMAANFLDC
Experimental: The VCB complex was mixed with EZ-link NHS-PEG4-biotin (Thermo Scientific) in a 1:1 molar ratio and incubated at room temperature for 1 h. The reaction was quenched using 1 M Tris-HCl, pH 7.5, and unreacted NHS-biotin was removed with a PD-10 MiniTrap desalting column (GE Healthcare) equilibrated with 20 mM HEPES, pH 7.5, 150 mM NaCl and 1 mM DTT.
All assays were performed at room temperature in 384-well plates with a final assay volume of 25 μL per well; plates were sealed with transparent film between addition of reagents. All reagents were prepared as 5× stocks diluted in 50 mM HEPES, pH 7.5, 100 mM NaCl, 0.1% (w/v) bovine serum albumin and 0.02% (w/v) 3-[(cholamidopropyl)dimethylammonio]-1-propanesulfonate (CHAPS). Biotinylated VCB (20 nM final) and Hiss-VCB (20 nM final) were incubated with a range of Homo-PROTAC concentrations (0.5 to 200 nM; three-in-five serial dilution) for 1 h. Anti-His acceptor beads (PerkinElmer, 10 μg/mL final) were added and plates were incubated for another hour. Streptavidin-coated donor beads (PerkinElmer, 10 μg/mL final) were added and plates were incubated for a final 1 h. Plates were read on a PHERAstar FS (BMG Labtech) using an optic module with an excitation wavelength of 680 nm and emission wavelength of 615 nm. Intensity values were plotted against PROTAC concentration on a logo scale.

pVHL30 = target: T2, pVHL30 (Homo sapiens, UniProt P40337); assay: Western blot of VHL levels in U2OS cells; format: cell-based
T2 construct: endogenous in cells; host or cells: U2OS
T2 sequence (P40337 whole entry): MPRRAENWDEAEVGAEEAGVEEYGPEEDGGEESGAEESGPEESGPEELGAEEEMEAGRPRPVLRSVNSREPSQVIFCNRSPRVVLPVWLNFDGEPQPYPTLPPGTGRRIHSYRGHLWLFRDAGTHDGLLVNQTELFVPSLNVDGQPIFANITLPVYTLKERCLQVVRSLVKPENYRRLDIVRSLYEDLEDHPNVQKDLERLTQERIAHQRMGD
Experimental: (§1) For single time point treatment experiments, cells were transferred in 6-well plates with 5×10^5 cells per well in 2 ml media in order to achieve 80% confluence the following day. Stock concentrations of compounds were prepared by solubilizing the powder in 100% v/v DMSO to the final desired stock concentration.
(§2) On the day of treatment, all compound samples were prepared as 100-fold concentrated compound solution using DMEM just before treatment. The experiment samples (20 μL) were added to the 6 well plate containing 2 ml of media. The final DMSO concentration was 0.1% v/v. Cells were incubated at 37° C. and 5% CO2 for the desired time before harvesting.
(§3) For time dependent treatment, cells were transferred in 6-well plates with 3×10^5 cells per well in 2 ml media. Samples were prepared as detailed above or the single time point experiments. Treatment was conducted at given time points prior to harvest.
(§4) Cells were lysed in lysis buffer (20 mM Tris pH 8, 150 mM NaCl, 1% Triton x100) and a protease inhibitor cocktail (Roche) per 10 ml buffer. For protein extracts, the dishes were placed on ice. The media was aspirated and the tissue layer washed twice with ice-cold phosphate buffer saline (PBS). Lysis buffer (120 μl) was added and the cells detached from the surface with a cell scraper. After removal of the insoluble fraction by centrifugation, the protein concentration of the supernatant was determined by Pierce™ Coomassie (Bradford) Protein Assay Kit. Protein extracts were fractionated by SDS-PAGE on 4-12% Tris-Acetate NuPage® Novex® (Life Technologies) polyacrylamide gels and transferred to a nitrocellulose membrane using wet transfer. The membrane was then blocked with 5% w/v Bovine serum albumin (BSA) in Tris-buffered saline (TBS) with 0.1% w/v Tween-20. For detecting proteins the following primary antibodies in the given concentrations were used: anti-β-Actin (Cell Signaling Technology, 4970S, 13E5) 1:2000, anti-VHL (Cell Signaling Technology, #68547) 1:1000, anti-Hif-1α (BD Biosciences, 610959, clone 54) 1:1000, anti-hydroxy-HIF-1α (Hyp564) (Cell Signaling Techonology; #3434) 1:1000, anti-PHD2 (Bethyl Laboratories; A300-322A) 1:1000, anti-PHD3 (Bethyl Laboratories; A300-327A) 1:1000, anti-CRBN (Proteintech; 11435-1-AP) 1:1000.
(§5) Following incubation with a horseradish peroxidase-conjugated secondary antibody (Cell Signaling Technology), the signal was developed using enhanced chemiluminescence (ECL) Western Blotting Detection Kit (Amersham) on Amersham Hyperfilm ECL film (Amersham).
Band quantification was performed using ImageJ software and reported as relative amount as ratio of the each protein band relative to the lane's loading control. The values obtained were then normalized to 0.1% DMSO vehicle control.

[2] = target: T3, pVHL30 (long isoform of VHL) (Homo sapiens, UniProt P40337); assay: Western blot of VHL levels in HeLa cells; format: cell-based
T3 construct: endogenous in cells; host or cells: HeLa
T3 sequence (P40337 whole entry, canonical isoform): as the sequence (P40337 whole entry) above
Experimental: as §1, §2, §3
Cells were transferred in 6-well plates with 5×10^5 cells per well in 2 ml media in order to achieve 80% confluence the day after. At t=0, MLN4924 was added into the desired wells at 3 μM final concentration and 0.1% v/v of DMSO. DMSO (0.1% v/v final conc.) was added to the remaining wells in order to match identical conc. of vehicle in all wells. At t=3 h, MG 132 was added into the desired wells at 50 μM final conc. and 0.1% v/v of DMSO. DMSO (0.1% v/v final conc.) was added to the remaining wells in order to achieve the same conc. of vehicle in all the wells. […] DMSO (0.1% v/v final conc.) was added to the remaining wells in order to obtain the same conc. of vehicle in all the wells. The total final concentration of DMSO was therefore 0.3% v/v. Plates were incubated for 4 h at 37° C. and 5% CO2 before harvesting.
Cells were transferred in 6-well plates with 5×10^5 cells per well in 2 ml media in order to achieve 80% confluence the day after. […] Plates were incubated for the desired time at 37° C. and 5% CO2 before harvesting.
For this experiments, cells were transferred in 6-well plates with 5×10^5 cells per well in 2 ml media in order to achieve 80% confluence the day after. […] Plates were incubated for the desired time at 37° C. and 5% CO2 before harvesting.
as §4, §5
Band quantification was performed using ImageJ software and reported as relative amount as ratio of the each protein band relative to the lane's loading control. […]

SMILES: Cc1ncsc1-c1ccc(CNC(=O)[C@@H]2C[C@@H](O)CN2C(=O)[C@@H](NC(=O)COCCOCCOCCOCCOCCOCC(=O)N[C@H](C(=O)N2C[C@H](O)C[C@H]2C(=O)NCc2ccc(-c3scnc3C)cc2)C(C)(C)C)C(C)(C)C)cc1 [CM11, N^1,N^20-bis((S)-1-((2S,4R)-4-hydroxy-2-((4-(4-methylthiazol-5-yl)benzyl)carbamoyl)pyrrolidin-1-yl)-3,3-dimethyl-1-oxobutan-2-yl)-3,6,9,12,15,18-hexaoxaicosanediamide]
- AlphaLISA intensity signal / complex formation [1]: highest intensity signal
- profile of cellular activity (pVHL30; 10 h, 1 nM-100 μM): consistent profile of cellular activity
- cellular efficacy at longer time points (pVHL30; time course): retained their efficacy
- time of treatment to complete degradation of pVHL30 (pVHL30; time course): 1 h
- effective degrading concentrations lower than inhibitory concentrations of VH032 [2]: > 3 orders of magnitude
- increase in cellular activity compared to parent inhibitor VH032 [2]: > 1000 fold
- depletion/degradation of VHL (pVHL30) ([2]; 1 μM, 10 h): total knockdown; also recorded: complete depletion
- DC99, complete depletion of pVHL30 ([2]; 4 h): 10 nM
- DC50 ([2]; 24 h, read-out: half-degrading concentration (DC50) of pVHL30): ~100 nM
- cellular activity with IOX4 pre-treatment ([2]; IOX4 50 μM 30 min before CM11 1 μM, 4 h): did not impact the cellular activity
- degradation of pVHL30 with MG132 pre-treatment ([2]; MG132 50 μM 30 min before CM11 1 μM, 4 h): completely abrogated
- degradation of pVHL30 with MLN4924 pre-treatment ([2]; MLN4924 3 μM before CM11 1 μM, 4 h): prevented
- pVHL degradation with VH032 pre-treatment (competition) ([2]; VH032 150 μM 30 min before CM11 1 μM, 4 h): blocked pVHL degradation
- decrease of pVHL30 level ([2]; time course, after 8 h): essentially to completion
